The source of these data is patent publication US10308645B2, “Piperidine oxadiazole and thiadiazole orexin receptor antagonists” (MERCK SHARP & DOHME CORP., priority 2014, dated 2019).

For one experiment, the target named is human orexin-2 receptor (Homo sapiens (Human), UniProt O43614). Description: FLIPR Ca2+ Flux Assay, hOX2R. It is filed as cell-based. As to conditions: CHO cells expressing the receptor; agonist Ala-6,12 human orexin-A. The procedure:
The utility of the compounds in accordance with the present invention as orexin receptor OX1R and/or OX2R antagonists may be readily determined without undue experimentation by methodology well known in the art, including the “FLIPR Ca^2+ Flux Assay” (Okumura et al., Biochem. Biophys. Res. Comm. 280:976-981, 2001). In a typical experiment the OX1 and OX2 receptor antagonistic activity of the compounds of the present invention was determined in accordance with the following experimental method. For intracellular calcium measurements, Chinese hamster ovary (CHO) cells expressing the rat orexin-1 receptor or the human orexin-2 receptor, are grown in Iscove's modified DMEM containing 2 mM L-glutamine, […], 1% hypoxanthine-thymidine supplement, 100 U/ml penicillin, 100 μg/ml streptomycin and 10% heat-inactivated fetal calf serum (FCS). The cells are seeded at 20,000 cells/well into Becton-Dickinson black 384-well clear bottom sterile plates coated with poly-D-lysine. All reagents were from GIBCO-Invitrogen Corp. The seeded plates are incubated overnight at 37° C. and 5% CO2. Ala-6,12 human orexin-A as the agonist is prepared as a 1 mM stock solution in 1% bovine serum albumin (BSA) and diluted in assay buffer (HBSS containing 20 mM HEPES, 0.1% BSA and 2.5 mM probenecid, pH7.4) for use in the assay at a final concentration of 70 pM. Test compounds are prepared as 10 mM stock solution in DMSO, then diluted in 384-well plates, first in DMSO, then assay buffer. On the day of the assay, cells are washed 3 times with 100 μl assay buffer and then incubated for 60 min (37° C., 5% CO2) in 60 μl assay buffer containing 1 μM Fluo-4AM ester, 0.02% pluronic acid, and 1% BSA. The dye loading solution is then aspirated and cells are washed 3 times with 100 μl assay buffer. 30 μl of that same buffer is left in each well. Within the Fluorescent Imaging Plate Reader (FLIPR, Molecular Devices), test compounds are added to the plate in a volume of 25 μl, incubated for 5 min and finally 25 μl of agonist is added. Fluorescence is measured for each well at 1 second intervals for 5 minutes and the height of each fluorescence peak is compared to the height of the fluorescence peak induced by […] Ala-6,12 orexin-A with buffer in place of antagonist. For each antagonist, IC50 value (the concentration of compound needed to inhibit 50% of the agonist response) is determined. Alternatively, compound potency can be assessed by a radioligand binding assay (described in Bergman et. al. Bioorg. Med. Chem. Lett. 2008, 18, 1425-1430) in which the inhibition constant (Ki) is determined in membranes prepared from CHO cells expressing either the OX1 or OX2 receptor. The intrinsic orexin receptor antagonist activity of a compound which may be used in the present invention may be determined by these assays.

For experiment [1], the target named is hOX1R (orexin-1 receptor) (Homo sapiens, UniProt O43613). As to the kind of experiment: FLIPR Ca2+ Flux Assay, hOX1R. In kind it is cell-based. Conditions: CHO cells expressing the receptor; agonist Ala-6,12 human orexin-A.

Chain of human orexin-2 receptor (O43614 whole entry): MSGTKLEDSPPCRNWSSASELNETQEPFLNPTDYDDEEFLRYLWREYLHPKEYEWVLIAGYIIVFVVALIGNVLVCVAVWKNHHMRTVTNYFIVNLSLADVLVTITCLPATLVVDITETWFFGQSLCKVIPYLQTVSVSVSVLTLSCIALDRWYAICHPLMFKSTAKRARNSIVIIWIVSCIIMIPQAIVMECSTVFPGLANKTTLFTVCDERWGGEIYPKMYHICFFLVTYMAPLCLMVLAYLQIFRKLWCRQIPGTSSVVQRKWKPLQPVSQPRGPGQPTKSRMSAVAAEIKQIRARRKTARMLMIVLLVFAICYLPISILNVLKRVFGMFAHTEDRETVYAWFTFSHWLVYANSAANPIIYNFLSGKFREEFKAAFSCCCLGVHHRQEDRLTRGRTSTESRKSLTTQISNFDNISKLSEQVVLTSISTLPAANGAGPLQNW

With `C[C@@H]1CC[C@@H](c2noc(C(C)(C)O)n2)CN1C(=O)c1cscc1-c1ncccn1` [Example 24, 2-(3-{(3R,6R)-6-methyl-1-[(4-pyrimidin-2-ylthiophen-3-yl)carbonyl]piperidin-3-yl}-1,2,4-oxadiazol-5-yl)propan-2-ol], the IC50 at human orexin-2 receptor was 76 nM; in experiment [1], greater than 10 µM.
On the same counts, the results for `CCc1nc([C@@H]2CC[C@@H](C)N(C(=O)c3ccccc3-n3nccn3)C2)no1` [Example 3, (2R,5R)-5-(5-ethyl-1,2,4-oxadiazol-3-yl)-2-methyl-1-{[2-(2H-1,2,3-triazol-2-yl)phenyl]carbonyl}piperidine] are 315 nM and greater than 10 µM.
On the same counts, the results for `COC(C)(C)c1nc([C@@H]2CC[C@@H](C)N(C(=O)c3ccccc3-n3nccn3)C2)ns1` [Example 43, (2R,5R)-5-[5-(1-methoxy-1-methylethyl)-1,2,4-thiadiazol-3-yl]-2-methyl-1-{[2-(2H-1,2,3-triazol-2-yl)phenyl]carbonyl}piperidine] are 39 nM and 1.41 µM.
On the same counts, the results for `C[C@@H]1CC[C@@H](c2nc(C3CC3)no2)CN1C(=O)c1ccccc1-n1nccn1` [Example 28, (2R,5R)-5-(3-cyclopropyl-1,2,4-oxadiazol-5-yl)-2-methyl-1-{[2-(2H-1,2,3-triazol-2-yl)phenyl]carbonyl}piperidine] are 345 nM and greater than 10 µM.
On to `C[C@@H]1CC[C@@H](c2nsc(C(C)(C)O)n2)CN1C(=O)c1ccsc1-n1nccn1` [Example 29, 2-{3-[(3R,6R)-6-Methyl-1-{[2-(2H-1,2,3-triazol-2-yl)thiophen-3-yl]carbonyl}piperidin-3-yl]-1,2,4-thiadiazol-5-yl}propan-2-ol], for which the IC50 on human orexin-2 receptor is 88 nM; in experiment [1], greater than 10 µM.
For `C[C@@H]1CC[C@@H](c2noc(C(C)(C)O)n2)CN1C(=O)c1ccsc1-c1ncccn1` [Example 22, 2-(3-{(3R,6R)-6-methyl-1-[(2-pyrimidin-2-ylthiophen-3-yl)carbonyl]piperidin-3-yl}-1,2,4-oxadiazol-5-yl)propan-2-ol], the IC50 is 61 nM on human orexin-2 receptor and greater than 10 µM in experiment [1].
In the same order, the values of `C[C@@H]1CC[C@@H](c2noc(C(C)(C)O)n2)CN1C(=O)c1cscc1-n1nccn1` [Example 14, 2-{3-[(3R,6R)-6-methyl-1-{[4-(2H-1,2,3-triazol-2-yl)thiophen-3-yl]carbonyl}piperidin-3-yl]-1,2,4-oxadiazol-5-yl}propan-2-ol] are 48 nM and greater than 10 µM.
In the same order, the values of `C[C@@H]1CC[C@@H](c2noc([C@@](C)(O)C(F)(F)F)n2)CN1C(=O)c1ccccc1-n1nccn1` [Example 10, (2R)-1,1,1-Trifluoro-2-{3-[(3R,6R)-6-methyl-1-{[2-(2H-1,2,3-triazol-2-yl)phenyl]carbonyl}piperidin-3-yl]-1,2,4-oxadiazol-5-yl}propan-2-ol] are 97 nM and 2.24 µM.
In the same order, the values of `C[C@@H]1CC[C@@H](c2nsc(C(C)(C)O)n2)CN1C(=O)c1cscc1-c1ncccn1` [Example 42, 2-(3-{(3R,6R)-6-methyl-1-[(4-pyrimidin-2-ylthiophen-3-yl)carbonyl]piperidin-3-yl}-1,2,4-thiadiazol-5-yl)propan-2-ol] are 83 nM and greater than 10 µM.
For the compound `C[C@@H]1CC[C@@H](c2nsc(C(C)(C)O)n2)CN1C(=O)c1ccccc1-n1nccn1` [Example 35, 2-{3-[(3R,6R)-6-methyl-1-{[2-(2H-1,2,3-triazol-2-yl)phenyl]carbonyl}piperidin-3-yl]-1,2,4-thiadiazol-5-yl}propan-2-ol], the IC50 is 27 nM on human orexin-2 receptor and 2.38 µM in experiment [1].
Take `C[C@@H]1CC[C@@H](c2noc(C(C)(C)O)n2)CN1C(=O)c1ccccc1-c1ncccn1` [Example 23, 2-(3-{(3R,6R)-6-Methyl-1-[(2-pyrimidin-2-ylphenyl)carbonyl]piperidin-3-yl}-1,2,4-oxadiazol-5-yl)propan-2-ol]: the figures for the IC50 (at human orexin-2 receptor; in experiment [1]) were 63 nM and greater than 10 µM, respectively.
For the compound `C[C@@H]1CC[C@@H](c2nsc(C(C)(C)O)n2)CN1C(=O)c1ccccc1-c1ncccn1` [Example 41, 2-(3-{(3R,6R)-6-Methyl-1-[(2-pyrimidin-2-ylphenyl)carbonyl]piperidin-3-yl}-1,2,4-thiadiazol-5-yl)propan-2-ol], the values for the IC50 (at human orexin-2 receptor; in experiment [1]) were 48 nM and greater than 10 µM, respectively.
On the same counts, the results for `COC(=O)c1ccccc1C(=O)N1C[C@H](c2noc(C(C)(C)O)n2)CC[C@H]1C` [Example 20, methyl 2-({(2R,5R)-5-[5-(1-hydroxy-1-methylethyl)-1,2,4-oxadiazol-3-yl]-2-methylpiperidin-1-yl}carbonyl)benzoate] are 97 nM and greater than 10 µM.
In the same order, the values of `CCOc1ccccc1C(=O)N1C[C@H](c2noc(C(C)(C)O)n2)CC[C@H]1C` [Example 19, 2-(3-{(3R,6R)-1-[(2-ethoxyphenyl)carbonyl]-6-methylpiperidin-3-yl}-1,2,4-oxadiazol-5-yl)propan-2-ol] are 124 nM and greater than 10 µM.
On to `C[C@@H]1CC[C@@H](c2noc(C(C)(C)O)n2)CN1C(=O)c1ccccc1-n1nccn1` [Example 5, 2-{3-[(3R,6R)-6-Methyl-1-{[2-(2H-1,2,3-triazol-2-yl)phenyl]carbonyl}piperidin-3-yl]-1,2,4-oxadiazol-5-yl}propan-2-ol], for which the concentration for half-maximal inhibition (IC50) on human orexin-2 receptor is 19 nM; in experiment [1] it was 3.18 µM.
On the same counts, the results for `C[C@@H]1CC[C@@H](c2noc(C(C)(C)O)n2)CN1C(=O)c1ccccc1C1(C#N)CC1` [Example 11, 1-[2-({(2R,5R)-5-[5-(1-hydroxy-1-methylethyl)-1,2,4-oxadiazol-3-yl]-2-methylpiperidin-1-yl}carbonyl)phenyl]cyclopropanecarbonitrile] are 22 nM and 2.29 µM.
In the same order, the values of `C[C@@H]1CC[C@@H](c2noc(C(C)(C)C)n2)CN1C(=O)c1ccccc1-n1nccn1` [Example 2, (2R,5R)-5-(5-tert-butyl-1,2,4-oxadiazol-3-yl)-2-methyl-1-{[2-(2H-1,2,3-triazol-2-yl)phenyl]carbonyl}piperidine] are 29 nM and 0.516 µM.
On the same counts, the results for `C[C@@H]1CC[C@@H](c2nsc(C(C)(C)O)n2)CN1C(=O)c1ccccc1-n1ncnn1` [Example 34, 2-{3-[(3R,6R)-6-methyl-1-{[2-(2H-tetrazol-2-yl)phenyl]carbonyl}piperidin-3-yl]-1,2,4-thiadiazol-5-yl}propan-2-ol] are 339 nM and greater than 10 µM.
For the compound `C[C@@H]1CC[C@@H](c2nc(C(C)(C)O)no2)CN1C(=O)c1ccccc1-n1nccn1` [Example 27, 2-{5-[(3R,6R)-6-methyl-1-{[2-(2H-1,2,3-triazol-2-yl)phenyl]carbonyl}piperidin-3-yl]-1,2,4-oxadiazol-3-yl}propan-2-ol], the results for the IC50 (at human orexin-2 receptor; in experiment [1]) were 75 nM and greater than 10 µM, respectively.
In the same order, the values of `C[C@@H]1CC[C@@H](c2noc([C@H](O)C(F)(F)F)n2)CN1C(=O)c1ccccc1-n1nccn1` [Example 7, (1S)-2,2,2-trifluoro-1-{3-[(3R,6R)-6-methyl-1-{[2-(2H-1,2,3-triazol-2-yl)phenyl]carbonyl}piperidin-3-yl]-1,2,4-oxadiazol-5-yl}ethanol] are 22 nM and 0.456 µM.
`COC(C)(C)c1nc([C@@H]2CC[C@@H](C)N(C(=O)c3ccccc3-n3nccn3)C2)no1` [Example 8, (2R,5R)-5-[5-(1-Methoxy-1-methylethyl)-1,2,4-oxadiazol-3-yl]-2-methyl-1-{[2-(2H-1,2,3-triazol-2-yl)phenyl]carbonyl}piperidine]: the values for the 50% inhibitory concentration (IC50) (at human orexin-2 receptor; in experiment [1]) were 98 nM and 3.7 µM, respectively.
